Here are results for 3 compounds from patent publication US11147763B2, “Vaginal ring with visual indication of use” (RESEARCH TRIANGLE INSTITUTE, priority 2015, dated 2021).

Series [1] can be described thus: Diffusion of indicator out of silicone (PDMS) vaginal ring into surrounding solution. It counts as physicochemical. To be noted: aqueous conditions, over the course of one week (FIG. 3B). On the procedure:
Two different approaches were tested to assess the usage of the vaginal ring (FIG. 2A and FIG. 2B). First, a system with signal change resultant of indicator diffusion (i) out of the ring was tested (FIG. 2A).
In these cases, silicone (polydimethyl siloxane, PDMS) was utilized in combination with rhodamine-B, fluorescein, and a rhodamine-B/Brilliant Blue combination. (FIG. 3A).

Series [2] in a line: Screen of pH-based color changing tracers in biocompatible-grade silicone material. It counts as physicochemical. To be noted: biocompatible-grade silicone placed into an aqueous environment. The procedure:
For the second approach, research efforts focused on developing systems for analyzing biological constituents that diffuse into the ring causing a pH change (FIG. 2B, ii). To accomplish this testing strategy, a variety of pH-based color changing formulations were evaluated in biocompatible-grade silicone material. […] This material screen also facilitated the abandonment of tracers with poor performance, such as highly hydrophilic molecular families with high expulsion tendencies.

In the case of `CCN(CC)c1ccc2c(-c3ccccc3C(=O)O)c3ccc(=[N+](CC)CC)cc-3oc2c1.[Cl-]` [rhodamine-B], the “release of indicator from the silicone material” value in series [1] is given as “readily released from the silicone material”. For `O=C1c2ccccc2C(=O)c2c1ccc(O)c2O` [Alazarin], in series [2], the “leaching of tracer from the silicone material” value was “readily leached from the silicone material”. Same read-out and setting: to `CN(C)c1ccc(/N=N/c2ccccc2C(=O)O)cc1` [Methyl Red] belongs “readily leached from the silicone material”.
